Measured values taken from patent publication US9439918B2 (priority 2008, dated 2016).
Converted amounts (≈) assume the structure as drawn. Where two headings read alike, the source gives them in different places.

Columns and labels:
[1] = tested on: C. jejuni (20); assay: MIC, agar dilution / Etest; details: for MIC50 / MIC90: Campylobacter jejuni; for MIC50: read-out: MIC 50% (Etest); for MIC90: read-out: MIC 90% (Etest)
[2] = tested on: H. pylori (23); assay: MIC, agar dilution / Etest
[3] = tested on: L. pneumophila ATCC 33153; type: cell-based, Legionella pneumophila
[4] = tested on: intraphagocytic L. pneumophila ATCC 33153; type: cell-based, Legionella pneumophila; details: for Emax, Δ log10 CFU at 24 h compared to the post-phagocytosis inoculum: L.p., intracellular
[5] = tested on: Salmonella spp. (20); assay: MIC, CLSI broth microdilution; type: cell-based; details: for MIC50 / MIC90: Salmonella
[6] = tested on: Shigella spp. (40); assay: MIC, CLSI broth microdilution; type: cell-based
[7] = tested on: streptococci; assay: MIC50 against Gram-positive cocci; type: cell-based
[8] = tested on: staphylococci; assay: MIC50 against Gram-positive cocci; type: cell-based
[9] = tested on: intraphagocytic L. monocytogenes EGD; type: cell-based, Listeria monocytogenes
[10] = Helicobacter pylori, read-out: MIC 50% (Etest)
[11] = C. jejuni, 20 strains, agar dilution

## CN(C)[C@@H]1C(O)=C(C(N)=O)C(=O)[C@@]2(O)C(O)=C3C(=O)c4c(O)cccc4[C@@](C)(O)[C@H]3C[C@@H]12 [Tetracycline]
[1]; C. jejuni, 20 strains
  MIC Range (Etest): 0.06 to 256 µg/mL
[1]
  MIC50: 64 µg/mL (≈ 144 µM)
  MIC90: > 256 µg/mL
[2]; [10]
  MIC50: 0.06 µg/mL (≈ 0.135 µM)

## CC[C@H]1OC(=O)[C@@](C)(F)C(=O)[C@H](C)[C@@H](OC2OC(C)CC(N(C)C)C2O)[C@@](C)(OC)C[C@@H](C)C(=O)[C@H](C)[C@H]2N(CCCCn3cc(-c4cccc(N)c4)nn3)C(=O)O[C@]12C (stereo partly shown) [CEM-101, 11-N-4-(3-aminophenyl)-[1,2,3]triazol-1-yl]-butyl-5-desosaminyl-3-oxo-2-fluoro-erythronolide A,-11,12-cyclic carbamate]
[3]; conventional susceptibility testing
  MIC: 0.004 µg/mL (≈ 0.00473 µM)
[3]; pH-adjusted broth, pH 6.5
  MIC: 0.01 µg/mL (≈ 0.0118 µM)
[3]; pH-adjusted broth, pH 7.4
  MIC: 0.005 µg/mL (≈ 0.00592 µM)
[4]; 48 h
  Emax, CFU decrease from original inoculum: −1.03 log10 units
[4]
  Emax, Δ log10 CFU at 24 h compared to the post-phagocytosis inoculum: −1.03 Δ log10 CFU
[5]; MIC distribution, 20 strains
  No. of strains at MIC 0.06: 0
  No. of strains at MIC 0.12: 0
  No. of strains at MIC 0.25: 0
  No. of strains at MIC 0.5: 0
  No. of strains at MIC 1: 3
  No. of strains at MIC 2: 4
  No. of strains at MIC 4: 4
  No. of strains at MIC 8: 4
  No. of strains at MIC ≦0.03: 0
  No. of strains at MIC ≧16: 5
[5]; Salmonella spp., 20 strains
  MIC 50%: 4 µg/mL (≈ 4.73 µM)
  MIC 90%: >16 µg/mL
[1]; [11]
  MIC 50%: 1 µg/mL (≈ 1.18 µM)
  MIC 90%: 4 µg/mL (≈ 4.73 µM)
[1]; MIC distribution, 20 strains
  No. of strains at MIC 0.06: 0
  No. of strains at MIC 0.12: 0
  No. of strains at MIC 0.25: 0
  No. of strains at MIC 0.5: 0
  No. of strains at MIC 1: 10
  No. of strains at MIC 2: 0
  No. of strains at MIC 4: 8
  No. of strains at MIC 8: 2
  No. of strains at MIC ≦0.03: 0
  No. of strains at MIC ≧16: 0
[6]; MIC distribution, 40 strains
  No. of strains at MIC 0.06: 0
  No. of strains at MIC 0.12: 0
  No. of strains at MIC 0.25: 0
  No. of strains at MIC 0.5: 0
  No. of strains at MIC 1: 2
  No. of strains at MIC 2: 0
  No. of strains at MIC 4: 14
  No. of strains at MIC 8: 18
  No. of strains at MIC ≦0.03: 0
  No. of strains at MIC ≧16: 6
[6]; Shigella spp., 40 strains
  MIC 50%: 8 µg/mL (≈ 9.47 µM)
  MIC 90%: 16 µg/mL (≈ 18.9 µM)
[7]
  MIC50: 0.015 µg/mL (≈ 0.0178 µM)
[8]
  MIC50: 0.06 µg/mL (≈ 0.071 µM)
[9]
  Emax, Δ log10 CFU at 24 h compared to the post-phagocytosis inoculum: −0.66 Δ log10 CFU
[9]; 24 h
  Emax, CFU decrease from original inoculum: −0.66 log10 units

## CC[C@H]1OC(=O)[C@H](C)[C@@H](O[C@H]2C[C@@](C)(OC)[C@@H](O)[C@H](C)O2)[C@H](C)[C@@H](O[C@@H]2O[C@H](C)C[C@H](N(C)C)[C@H]2O)[C@](C)(OC)C[C@@H](C)C(=O)[C@H](C)[C@@H](O)[C@]1(C)O [CLR, clarithromycin]
[4]
  Emax, Δ log10 CFU at 24 h compared to the post-phagocytosis inoculum: −0.71 Δ log10 CFU
[5]
  MIC50: 0.015 µg/mL (≈ 0.0201 µM)
  MIC90: > 16 µg/mL
[1]; C. jejuni, 20 strains
  MIC Range (Etest): 1 to 8 µg/mL
[1]; C. jejuni, 20 strains, listed as CLA
  MIC Range (Etest): 1-8 (CLA) μg/ml
[1]
  MIC50: 2 µg/mL (≈ 2.67 µM)
  MIC90: 4 µg/mL (≈ 5.35 µM)
[6]; Shigella spp., 40 strains
  MIC50: > 16 µg/mL
  MIC90: > 16 µg/mL
[2]; CLSI 2008 criteria
  % by category resistant: 8.7%
  % by category susceptible: 91.3%
[2]; Helicobacter pylori
  MIC50: 0.03 µg/mL (≈ 0.0401 µM)
  MIC90: 0.12 µg/mL (≈ 0.16 µM)
[2]; [10]
  MIC50: ≤ 0.015 µg/mL

## CC[C@H]1OC(=O)[C@H](C)[C@@H](O[C@H]2C[C@@](C)(OC)[C@@H](O)[C@H](C)O2)[C@H](C)[C@@H](O[C@@H]2O[C@H](C)C[C@H](N(C)C)[C@H]2O)[C@](C)(O)C[C@@H](C)C(=O)[C@H](C)[C@@H](O)[C@]1(C)O [Erythromycin]
[5]
  MIC50: > 4 µg/mL
  MIC90: > 4 µg/mL
[1]; C. jejuni, 20 strains
  MIC Range (Etest): 0.5 to 4 µg/mL
[1]
  MIC50: 2 µg/mL (≈ 2.73 µM)
  MIC90: 4 µg/mL (≈ 5.45 µM)
[6]; Shigella spp., 40 strains
  MIC50: > 4 µg/mL
  MIC90: > 4 µg/mL

## C=CC1=C(C(=O)O)N2C(=O)[C@@H](NC(=O)/C(=N\O)c3csc(N)n3)[C@H]2SC1 [Cefdinir]
[5]; CLSI 2008 criteria
  % by category resistant: 0.0%
  % by category susceptible: 100.00%
[5]
  MIC50: 0.25 µg/mL (≈ 0.632 µM)
  MIC90: 0.5 µg/mL (≈ 1.26 µM)
[6]; CLSI 2008 criteria
  % by category resistant: 0.0%
  % by category susceptible: 100.0%
[6]; Shigella spp., 40 strains
  MIC50: 0.25 µg/mL (≈ 0.632 µM)
  MIC90: 0.25 µg/mL (≈ 0.632 µM)

## Cc1ncc([N+](=O)[O-])n1CCO [Metronidazole]
[2]; H. pylori, eight strains, Etest
  MIC Range (Etest): 0.06 to 64 µg/mL
[2]; [10]
  MIC50: 0.5 µg/mL (≈ 2.92 µM)

## CCC[C@@H]1C[C@@H](C(=O)N[C@@H]([C@H]2O[C@H](SC)[C@H](O)[C@@H](O)[C@H]2O)[C@H](C)Cl)N(C)C1 [Clindamycin]
[6]; Shigella spp., 40 strains
  MIC50: > 4 µg/mL
  MIC90: > 4 µg/mL
